Tests used:
Adenosine A2b receptor = target: T1, Adenosine A2b receptor (Homo sapiens, UniProt P29275); test: Adenosine receptor TR-FRET binding assay, A2b; conditions: Table 9, further testing; displacement of 30 nM CA200645, CHO cell membranes
T1 construct: expressed in transfected cells; host or cells: CHO cell membranes
T1 sequence (P29275 1-332): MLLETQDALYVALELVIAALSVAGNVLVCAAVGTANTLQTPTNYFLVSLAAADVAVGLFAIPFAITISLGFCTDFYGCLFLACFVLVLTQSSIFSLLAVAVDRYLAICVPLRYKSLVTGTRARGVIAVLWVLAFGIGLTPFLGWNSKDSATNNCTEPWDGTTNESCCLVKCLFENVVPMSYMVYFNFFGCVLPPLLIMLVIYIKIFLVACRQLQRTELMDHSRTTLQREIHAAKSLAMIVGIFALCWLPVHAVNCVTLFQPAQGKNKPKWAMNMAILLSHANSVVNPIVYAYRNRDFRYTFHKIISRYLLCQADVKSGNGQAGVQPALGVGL
Description: (§1) All FRET binding experiments were conducted at room temperature in white 384-well plates, in assay binding buffer containing 1× LabMed (Cisbio, France), 100 μg/mL saponin, 1% DMSO and 0.02% pluronic acid. Binding of the fluorescently labelled Adenosine receptor antagonist XAC (CA200645, FRET acceptor) to terbium-labelled A1, A2a, A2b and A3 adenosine receptors (FRET donors) was detected by time-resolved FRET due to the close proximity of the donor and acceptor in a binding event. To investigate the ability of unlabelled test compounds to bind to Adenosine A1, A2a, A2b and A3 receptors, dose response curves were constructed that determined the ability of a range of concentrations to inhibit the binding of 30 nM CA200645 to the A2b receptor and 100 nM CA200645 to the A1, A2a, and A3 receptor.
(§2) Serial dilution (1:3 dilutions) of test compounds in neat DMSO and transfer of a 400 nL sample of test compound into the assay plate was carried out using the Mosquito (TTP Labtech, UK). The compound samples were incubated for 2 hours at room temperature with a fixed concentration of CA200645 defined for each receptor (see above) and CHO cell membranes containing the human Adenosine A1 (0.5 μg/well), A2a (0.3 μg/well), A2b (1 μg/well) or A3 (1 μg/well) receptor in 40 μL of assay buffer. Total and non-specific binding of CA200645 was determined in the absence and presence of 10 μM XAC, respectively.
(§3) Following 2 hours incubation, the level of CA200645 binding was detected on a Pherastar FSX (BMG Labtech, Germany) using standard TR-FRET settings. The terbium donor was excited with three laser flashes at a wavelength of 337 nm, and donor and acceptor emission was detected at 620 nm and 665 nm wavelengths, respectively. FRET ratios were obtained by multiplying the acceptor/donor ratio value by 10,000. Specific binding was determined by subtracting the non-specific binding FRET ratio from the total binding FRET ratio. Compound IC50 curves were analysed using GraphPad Prism 7.0 (GraphPad, USA) and Ki affinity values were determined from the obtained […] values using the method of Cheng and Prusoff.

Adenosine A2a receptor = target: T2, Adenosine A2a receptor (Homo sapiens, UniProt P29274); test: Adenosine receptor TR-FRET binding assay, A2a; conditions: displacement of 100 nM CA200645, CHO cell membranes
T2 construct: expressed in transfected cells; host or cells: CHO cell membranes
T2 sequence (P29274 whole entry): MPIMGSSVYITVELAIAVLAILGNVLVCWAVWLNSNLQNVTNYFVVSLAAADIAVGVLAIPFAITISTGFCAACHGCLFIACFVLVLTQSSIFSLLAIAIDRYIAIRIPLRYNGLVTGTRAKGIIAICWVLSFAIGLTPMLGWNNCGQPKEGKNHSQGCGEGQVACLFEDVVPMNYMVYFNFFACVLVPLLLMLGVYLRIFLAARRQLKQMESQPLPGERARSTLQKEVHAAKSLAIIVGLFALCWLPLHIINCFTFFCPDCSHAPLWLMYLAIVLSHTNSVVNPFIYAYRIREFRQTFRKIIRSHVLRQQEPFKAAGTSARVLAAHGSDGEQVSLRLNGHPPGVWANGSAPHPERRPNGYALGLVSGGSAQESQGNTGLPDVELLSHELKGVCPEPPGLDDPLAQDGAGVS
Description: as §1, §2, §3

Adenosine A1 receptor = target: T3, Adenosine A1 receptor (Homo sapiens, UniProt P30542); test: Adenosine receptor TR-FRET binding assay, A1; conditions: Table 9, further testing; displacement of 100 nM CA200645, CHO cell membranes
T3 construct: expressed in transfected cells; host or cells: CHO cell membranes
T3 sequence (P30542 1-326): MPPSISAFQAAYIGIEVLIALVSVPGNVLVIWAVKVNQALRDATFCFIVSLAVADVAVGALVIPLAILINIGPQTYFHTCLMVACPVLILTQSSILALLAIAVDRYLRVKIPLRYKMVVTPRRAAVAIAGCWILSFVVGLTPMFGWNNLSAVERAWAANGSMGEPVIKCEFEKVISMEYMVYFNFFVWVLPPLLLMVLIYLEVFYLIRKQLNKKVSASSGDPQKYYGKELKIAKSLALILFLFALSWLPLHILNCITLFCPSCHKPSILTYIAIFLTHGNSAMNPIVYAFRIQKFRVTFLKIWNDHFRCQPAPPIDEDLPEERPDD
Description: as §1, §2, §3

Row | SMILES | Ki (Adenosine A2b receptor) | Ki (Adenosine A2a receptor; Table 9, further testing) | Ki (Adenosine A2a receptor; Table 8, Cheng and Prusoff) | Ki (Adenosine A1 receptor)
1 | Cc1cccnc1CNC(=O)c1cnc(-c2nccs2)nc1N [Example 16.1, 4-Amino-N-[(3-methyl-2-pyridyl)methyl]-2-thiazol-2-yl-pyrimidine-5-carboxamide] | 7170 nM | 40 nM |  | 
2 | CCCNC(=O)c1c(N)nc(-c2cccc(C#N)c2)nc1OCCF [Example 24.1, 4-Amino-2-(3-cyanophenyl)-6-(2-fluoroethoxy)-N-propyl-pyrimidine-5-carboxamide] |  | 5.7 nM |  | 
3 | Nc1nc(-c2cccc(F)c2)ncc1C(=O)NCc1ncccc1C(F)(F)F [Example 5.6, 4-Amino-2-(3-fluorophenyl)-N-[[3-(trifluoromethyl)-2-pyridyl]methyl]pyrimidine-5-carboxamide] | 622 nM | 29 nM | 29 nM | 
4 | Nc1nc(-c2cccc(F)c2)ncc1C(=O)NCc1ncccn1 [Example 5.5, 4-Amino-2-(3-fluorophenyl)-N-(pyrimidin-2-ylmethyl)pyrimidine-5-carboxamide] |  | 278 nM | 278 nM | 
5 | CCOc1cccnc1CNC(=O)c1cnc(-c2cccc(F)c2)nc1N [Example 5.8, 4-Amino-N-[(3-ethoxy-2-pyridyl)methyl]-2-(3-fluorophenyl)pyrimidine-5-carboxamide] | 679 nM | 21 nM | 21 nM | 
6 | COc1ccc(CNC(=O)c2cnc(-c3ccco3)nc2N)cc1 [Example 5.11, 4-Amino-2-(2-furyl)-N-[(4-methoxyphenyl)methyl]pyrimidine-5-carboxamide] |  | 495 nM | 495 nM | 
7 | CN(Cc1ccccc1)C(=O)c1cnc(-c2ccco2)nc1N [Example 5.22] |  | 871 nM | 871 nM | 4240 nM
8 | CC(C)n1ccnc1CNC(=O)c1cnc(-c2ccco2)nc1N [Example 5.33, 4-Amino-2-(2-furyl)-N-[(1-isopropylimidazol-2-yl)methyl]pyrimidine-5-carboxamide] | 6680 nM | 9.4 nM |  | 
9 | COc1cccc(CNC(=O)c2cnc(-c3cccc(F)c3)nc2N)c1OC [Example 10.10, 4-Amino-N-[(2,3-dimethoxyphenyl)methyl]-2-(3-fluorophenyl)pyrimidine-5-carboxamide] | 378 nM | 96 nM | 96 nM | 
10 | COc1cccc(CNC(=O)c2cnc(-c3ccco3)nc2N)c1OC [Example 5.38, 4-Amino-N-[(2,3-dimethoxyphenyl)methyl]-2-(2-furyl)pyrimidine-5-carboxamide] | 2360 nM | 20 nM |  | 
11 | Nc1nc(-c2cccc(F)c2)ncc1C(=O)NCc1ccccc1F [Example 5.1, 4-Amino-2-(3-fluorophenyl)-N-[(2-fluorophenyl)methyl]pyrimidine-5-carboxamide] | 172 nM | 90 nM | 90 nM | 
12 | Nc1nc(-c2ccco2)ncc1C(=O)N[C@H]1CCc2ccc(F)cc21 [Example 5.42, 4-Amino-N-[(1S)-6-fluoroindan-1-yl]-2-(2-furyl)pyrimidine-5-carboxamide] |  | 53 nM |  | 
13 | CC(C)NC(=O)c1c(N)nc(-c2cccc(C#N)c2)nc1OCCF [Example 24, 4-Amino-2-(3-cyanophenyl)-6-(2-fluoroethoxy)-N-isopropyl-pyrimidine-5-carboxamide] |  | 3.3 nM |  | 
14 | CN(C)CCNC(=O)c1c(N)nc(-c2cccc(C#N)c2)nc1OCCF [Example 24.5, 4-Amino-2-(3-cyanophenyl)-N-[2-(dimethylamino)ethyl]-6-(2-fluoroethoxy)pyrimidine-5-carboxamide] |  | 29 nM |  | 
15 | CC(=O)NCCNc1nc(-c2ccco2)nc(N)c1C(=O)NCc1ncccc1C [Example 22, 4-(2-Acetamidoethylamino)-6-amino-2-(2-furyl)-N-[(3-methyl-2-pyridyl)methyl]pyrimidine-5-carboxamide] |  | 6.8 nM |  | 598 nM
16 | Cc1cccnc1CNC(=O)c1c(N)nc(-c2ccco2)nc1OCCC1CCCCN1 (centres unmarked) [Example 23, 4-Amino-2-(2-furyl)-N-[(3-methyl-2-pyridyl)methyl]-6-[2-(2-piperidyl)ethoxy]pyrimidine-5-carboxamide] |  | 864 nM |  | 8530 nM
17 | Nc1nc(-c2ccco2)ncc1C(=O)NCc1ccc(Cl)cc1Cl [Example 5.19, 4-Amino-N-[(2,4-dichlorophenyl)methyl]-2-(2-furyl)pyrimidine-5-carboxamide] |  | 15 nM | 15 nM | 
18 | NC(=O)c1nnc(-c2cccc(F)c2)nc1N [Example 6, 5-Amino-3-(3-fluorophenyl)-1,2,4-triazine-6-carboxamide] |  | 556 nM | 556 nM | 
19 | Nc1nc(-c2ccco2)ncc1C(=O)NCc1ncco1 [Example 5.45, 4-Amino-2-(2-furyl)-N-(oxazol-2-ylmethyl)pyrimidine-5-carboxamide] |  | 123 nM |  | 
20 | CCCCNC(=O)c1c(N)nc(-c2cccc(C#N)c2)nc1OCCF [Example 24.3, 4-Amino-N-butyl-2-(3-cyanophenyl)-6-(2-fluoroethoxy)pyrimidine-5-carboxamide] |  | 0.9 nM |  | 
21 | Nc1nc(-c2ccco2)ncc1C(=O)NCc1ccccc1C(F)(F)F [Example 5.55, 4-Amino-2-(2-furyl)-N-[[2-(trifluoromethyl)phenyl]methyl]pyrimidine-5-carboxamide] |  | 21 nM |  | 
22 | C[C@@H](NC(=O)c1cnc(-c2cccc(F)c2)nc1N)c1ccccc1 [Example 5, 4-Amino-2-(3-fluorophenyl)-N-[(1R)-1-phenylethyl]pyrimidine-5-carboxamide] |  | 329 nM | 329 nM | 
23 | Cc1cccnc1CNC(=O)c1cnc(-n2cccn2)nc1N [Example 15, 4-Amino-N-[(3-methyl-2-pyridyl)methyl]-2-pyrazol-1-yl-pyrimidine-5-carboxamide] |  | 265 nM | 265 nM | 
24 | Cc1cccnc1CNC(=O)c1cnc(-c2ccccc2F)nc1N [Example 9, 4-Amino-2-(2-fluorophenyl)-N-[(3-methyl-2-pyridyl)methyl]pyrimidine-5-carboxamide] |  | 312 nM | 312 nM | 
25 | Cc1cccnc1CNC(=O)c1cnc(-c2ncco2)nc1N [Example 16, 4-Amino-N-[(3-methyl-2-pyridyl)methyl]-2-oxazol-2-yl-pyrimidine-5-carboxamide] |  | 34 nM | 34 nM | 5650 nM
26 | Cc1ccc(CNC(=O)c2cnc(-c3ccco3)nc2N)cc1 [Example 11.1, 4-Amino-2-(2-furyl)-N-(p-tolylmethyl)pyrimidine-5-carboxamide] |  | 31 nM | 31 nM | 2380 nM
27 | Nc1nc(-c2ccco2)ncc1C(=O)NCc1ccc2cnccc2c1 [Example 5.47, 4-Amino-2-(2-furyl)-N-(6-isoquinolylmethyl) pyrimidine-5-carboxamide] |  | 230 nM |  | 4770 nM
28 | CC(C)CNC(=O)c1c(N)nc(-c2cccc(C#N)c2)nc1OCCF [Example 24.2, 4-Amino-2-(3-cyanophenyl)-6-(2-fluoroethoxy)-N-isobutyl-pyrimidine-5-carboxamide] |  | 2 nM |  | 
29 | CC(C)n1ncnc1CNC(=O)c1cnc(-c2ccco2)nc1N [Example 5.27, 4-Amino-2-(2-furyl)-N-[(2-isopropyl-1,2,4-triazol-3-yl)methyl]pyrimidine-5-carboxamide] |  | 17 nM | 17 nM | 2680 nM
30 | Nc1nc(-c2ccco2)ncc1C(=O)NC1CCCc2cccnc21 (centres unmarked) [Example 5.49, 4-Amino-2-(2-furyl)-N-(5,6,7,8-tetrahydroquinolin-8-yl)pyrimidine-5-carboxamide] |  | 159 nM |  | 

Source: patent US20200339548A1, “PYRIMIDINE DERIVATIVES AND THEIR USE FOR THE TREATMENT OF CANCER” (Adorx Therapeutics Limited, priority 2017, published 2020)
